Laboratory results from patent US20200299671A1, “IMMOBILIZED MULTI-ENZYMATIC HALOGENATION SYSTEM” (priority 2019, published 2020).

How the values were obtained:
PltM S404Y = experiment: Cell-based activity assay (Assay 3), PltM S404Y; set-up: species or system E. coli BL21 (DE3); details: cells expressing S404Y mutant
Procedure: (§1) E. coli BL21 (DE3) cells were transformed with ppltM-pET28a, ppltMK87A-pET28a, ppltML111Y-pET28a, ppltMS404Y-pET28a, and ppltA-pET28a. The ppltA-pET28a plasmid overexpressing the halogenase PltA whose substrate is pyrrolyl-S-PltL (a peptidyl carrier protein-linked pyrrole) was used as a negative control. Five colonies from each transformant were cultured in 2×500 mL of LB medium (for ppltM-pET28a, ppltML111Y-pET28a, and ppltMS404Y-pET28a) and 1×500 mL of LB medium (for ppltMK87A-pET28a and ppltA-pET28a) with 50 μg/mL kanamycin at 37° C. and 200 rpm until attenuance of 0.2 at 600 nm. The cultures were then moved to 25° C. until attenuance of 0.5. Protein expression was induced by adding 0.2 mM IPTG to all […] flasks, and the cultures were incubated with shaking for 1 h. 12.5 μg/mL of compound 1 was added to 1×500 mL of LB medium containing ppltM-pET28a, ppltMK87A-pET28a, ppltML111Y-pET28a, ppltMS404Y-pET28a, and ppltA-pET28a. Compound 1 was not added to the three remaining flasks (negative controls). After additional incubation for 20 h, the cells were pelleted at 5,000 g for 10 min, and the supernatant was collected. The supernatant was extracted with EtOAc (3×330 mL), which was dried in vacuo. […]
(§2) The halogenation reaction products were analyzed by HPLC or LC-MS by injecting 10 μL of each sample. […]
(§3) For HPLC analysis, the molecules were observed by absorbance at λ=275 nm as described above. […]

PltM = PltM (Pseudomonas protegens, UniProt Q4KCZ3); experiment: X-ray crystallography of PltM crystals soaked with FAD and substrates; details: crystals soaked with 0.5 mM FAD and substrate
Procedure: PltM crystals were obtained by the hanging drop method with drops containing 0.5 μL of PltM (40 mg/mL) and 0.5 μL of the reservoir solution (0.1 M Tris pH 8, 0.2 M NaCl, 0.1 M CaCl2) and 12-17% PEG 8000). The drops were equilibrated against 0.5 mL of reservoir solution at 21° C. Long rod-shaped crystals appeared after 1-3 days. The crystals were cryoprotected by a gradual transfer to the solution with the same composition as the reservoir solution, additionally containing 20% glycerol. The crystals were then frozen by a rapid immersion into liquid nitrogen.
However, PltM contains eight Cys residues, which, if accessible, would react with Hg salts. […] The structure was determined by the single anomalous dispersion (SAD) method from the EMP derivative data set (using the wavelength of 1.0 Å), as follows. […] This Hg substructure was used as an input in Autosolve in PHENIX suite to obtain initial phases, which were bootstrapped by difference Fourier analysis to yield the total of 33 Hg atoms and a readily interpretable electron density map, with the figure of merit of 0.71 after density modification. […]
PltM crystals were soaked in the reservoir solution used to obtained native PltM crystals, with additional 0.5 mM of FAD. […] FAD was readily discernable in the omit Fo-Fc map. […]

PltM L111Y = experiment: Cell-based activity assay (Assay 3), PltM L111Y; set-up: species or system E. coli BL21 (DE3); details: cells expressing L111Y mutant
Procedure: as §1, §2, §3

Chain of PltM (Q4KCZ3 entry or part of it): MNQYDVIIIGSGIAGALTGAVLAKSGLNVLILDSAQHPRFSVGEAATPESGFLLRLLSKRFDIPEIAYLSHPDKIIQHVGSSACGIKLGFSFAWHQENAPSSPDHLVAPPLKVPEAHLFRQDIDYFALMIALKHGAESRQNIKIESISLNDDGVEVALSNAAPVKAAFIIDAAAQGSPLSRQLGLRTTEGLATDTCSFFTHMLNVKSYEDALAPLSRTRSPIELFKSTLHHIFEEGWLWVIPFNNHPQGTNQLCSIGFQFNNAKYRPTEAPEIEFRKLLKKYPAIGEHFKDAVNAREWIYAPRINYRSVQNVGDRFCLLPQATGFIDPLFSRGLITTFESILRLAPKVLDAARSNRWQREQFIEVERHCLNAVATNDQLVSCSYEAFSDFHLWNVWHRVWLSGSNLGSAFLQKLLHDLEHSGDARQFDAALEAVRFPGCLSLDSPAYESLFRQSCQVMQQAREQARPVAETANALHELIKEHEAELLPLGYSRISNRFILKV

## Oc1cc(O)cc(O)c1 [Compound 1, phloroglucinol]
PltM S404Y
  halogenation in fermentation culture: product yield was significantly reduced compared to wild-type
PltM
  omit Fo-Fc electron density of substrate in soaked PltM crystals: yielded omit Fo-Fc electron density
PltM L111Y
  halogenation in fermentation culture: product yield was significantly reduced compared to wild-type
